Assay results from US5198462A, “Heterocyclic amine, derivatives, their production and use” (Takeda Chemical Industries, Ltd., priority 1990, dated 1993).

Target: T1, Acyl-CoA:cholesterol transferase (ACAT) (Rattus norvegicus, UniProt Q7TQM4)
T1 construct: prepared from the microsomal fraction of mucosal cells from the small intestines of 6-week old Sprague-Dawley rats; from tissue; host or cells: microsomal fraction of small-intestinal mucosal cells, Sprague-Dawley rats
T1 sequence (Q7TQM4 1-524): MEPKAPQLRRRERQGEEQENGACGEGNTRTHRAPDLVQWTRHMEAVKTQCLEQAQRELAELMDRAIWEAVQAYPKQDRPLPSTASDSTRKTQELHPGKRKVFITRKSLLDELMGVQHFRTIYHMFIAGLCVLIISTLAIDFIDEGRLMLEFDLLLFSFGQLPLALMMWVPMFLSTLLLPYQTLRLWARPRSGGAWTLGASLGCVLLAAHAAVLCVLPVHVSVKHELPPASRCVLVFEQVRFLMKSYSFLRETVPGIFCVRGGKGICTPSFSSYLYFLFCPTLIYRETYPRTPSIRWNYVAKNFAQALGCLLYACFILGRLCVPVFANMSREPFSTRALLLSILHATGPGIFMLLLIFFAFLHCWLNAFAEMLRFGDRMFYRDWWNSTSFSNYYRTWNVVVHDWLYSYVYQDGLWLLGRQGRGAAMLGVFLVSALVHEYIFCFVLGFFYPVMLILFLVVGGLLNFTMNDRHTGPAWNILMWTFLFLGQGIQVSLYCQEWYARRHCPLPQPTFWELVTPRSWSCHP
Experiment: Acyl-CoA:cholesterol transferase (ACAT)-inhibiting action
Type: biochemical, Sprague-Dawley rats
Details: 10^-6 M; microsomal fraction of mucosal cells from rat small intestines; labeled cholesterol ester formed from [1-14C]oleyl-CoA; read-out: ACAT inhibiting rate (%) 10^-6 M
Procedure: The enzyme specimen ACAT was prepared from the microsomal fraction of mucosal cells from the small intestines of 6-week old Sprague-Dawley rats fasted for 20 hours, in accordance with the method described by Heider, et al. on Journal of Lipid Research, Vol. 24, p. 1127 (1982).
The activity of ACAT was calculated by determining the amount of labeled cholesterol ester formed from [1-^14 C]oleyl-CoA and endogenous cholesterol.
In Table 1, the inhibition rate (%) of formation of labeled cholesterol ester by the addition of test compounds (representing the compounds obtained by the following Working Examples 1 to 31) in an amount of 10^-6 M is shown as the index of the action of inhibiting ACAT.

inhibition at 1 µM [%] | Compound
92.1 | O=C(Nc1ccc(F)cc1F)Nc1oc(=O)c2ccccc2c1-c1ccc(F)cc1 [Example 11, N-[4-(4-Fluorophenyl)isocoumarin-3-yl]-N'-(2,4-difluorophenyl)urea]
94.2 | O=C(Nc1ccc(F)cc1F)Nc1oc(=O)c2ccccc2c1-c1ccccc1 [Example 12, N-(4-Phenylisocoumarin-3-yl)-N'-(2,4-difluorophenyl)urea]
99.4 | COc1ccccc1-c1c(NC(=O)Nc2ccc(F)cc2F)oc(=O)c2ccccc12 [Example 15, N-[4-(2-Methoxyphenyl)isocoumarin-3-yl]-N'-(2,4difluorophenyl)urea]
60.2 | O=C(Nc1ccc(F)cc1F)Nc1oc(=O)c2ccc(F)cc2c1-c1ccc(F)cc1 [Example 16, N-[6-Fluoro-4-(4-fluorophenyl)isocoumarin-3-yl]-N'-(2,4-difluorophenyl)urea]
97.7 | COc1ccccc1-c1c(NC(=O)NC2CCCCC2)oc(=O)c2ccccc12 [Example 19, N-[4-(2-Methoxyphenyl)isocoumarin-3-yl]-N'-cyclohexylurea]
88.7 | CCOC(=O)CNC(=O)Nc1oc(=O)c2ccccc2c1-c1ccccc1OC [Example 20, N-[4-(2-Methoxyphenyl)isocoumarin-3-yl]-N'-ethoxycarbonyl-methylurea]
54.3 | Cn1c(NC(=O)Nc2ccc(F)cc2F)c(-c2cc(C(C)(C)C)c(O)c(C(C)(C)C)c2)c2ccccc2c1=O [Example 23, N-[4-(3,5-Di-t-butyl-4-hydroxyphenyl)-1,2-dihydro-2-methyl-1-oxoisoquinolin-3-yl-]-N'-(2,4-difluorophenyl)urea]
92 | COc1ccccc1C1=C(NC(=O)Nc2ccc(N(C)C)cc2)SCc2ccccc21 [Example 28, N-(4-Dimethylaminophenyl)-N'-[4-(2-methoxyphenyl)-1H-2-benzothiopyran-3-yl]urea]
95.5 | Cc1cc(NC(=O)NC2=C(c3ccccc3)c3ccccc3CS2)cc(C)c1O [Example 29, N-(4-Hydroxy-3,5-dimethylphenyl)-N'-(4-phenyl-1H-2-benzothiopyran-3-yl)urea]

Further lines, the compound ahead of its results:

Compound | inhibition at 1 µM [%]
O=C(Nc1ccc(F)cc1F)Nc1oc(=O)c2ccc(Cl)cc2c1-c1ccccc1 [Example 1, N-(6-Chloro-4-phenylisocoumarin-3-yl)-N'-(2,4-difluorophenyl)urea] | 98
CC(C)(C)OC(=O)Nc1oc(=O)c2ccc(Cl)cc2c1-c1ccccc1 [Example 2, t-Butyl N-(6-chloro-4-phenylisocoumarin-3-yl) carbamate] | 76.1
Cc1cc2c(-c3ccccc3C)c(NC(=O)Nc3ccc(F)cc3F)n(C)c(=O)c2cc1C [Example 8, N-[1,2-Dihydro-4-(2-methylphenyl)-2,6,7-trimethyl-1-oxoisoquinolin-3-yl]-N'-(2,4-difluorophenyl)urea] | 64.9
O=C(Nc1ccc(F)cc1F)Nc1oc(=O)c2cc(Cl)ccc2c1-c1ccccc1 [Example 9, N-(7-Chloro-4-phenylisocoumarin-3-yl)-N'-(2,4-difluorophenyl)urea] | 89.8
Cc1ccc2c(=O)oc(NC(=O)Nc3ccc(F)cc3F)c(-c3ccc(F)cc3)c2c1 [Example 10, N-[4-(4-Fluorophenyl)-6-methylisocoumarin-3-yl]-N'-(2,4-difluorophenyl)urea] | 98.5
CC(=O)Oc1c(C)cc(NC(=O)Nc2oc(=O)c3ccc(Cl)cc3c2-c2ccccc2)cc1C [Example 13, N-(6-Chloro-4-phenylisocoumarin-3-yl)-N'-(4-acetoxy-3,5-dimethylphenyl)urea] | 95.8
COc1ccccc1-c1c(NC(=O)Nc2cc(C)c(OC(C)=O)c(C)c2)oc(=O)c2ccccc12 [Example 14, N-[4-(2-Methoxyphenyl)isocoumarin-3-yl]-N'-(4-acetoxy-3,5-dimethylphenyl)urea] | 99
CC(=O)Oc1c(C)cc(NC(=O)Nc2oc(=O)c3ccc(F)cc3c2-c2ccc(F)cc2)cc1C [Example 17, N-[6-Fluoro-4-(4-fluorophenyl)isocoumarin-3-yl]-N'-(4-acetoxy-3,5-dimethylphenyl)urea] | 65.7
CC(=O)Oc1c(C)cc(NC(=O)Nc2oc(=O)c3ccccc3c2-c2ccccc2)cc1C [Example 18, N-(4-Isocoumarin-3-yl)-N'-(4-acetoxy-3,5-dimethylphenyl)urea] | 83.2
CC(=O)Oc1c(C)cc(NC(=O)NC2=C(c3ccccc3)c3ccccc3CS2)cc1C [Example 26, N-(4-acetoxy-3,5-dimethylphenyl)-N'-(4-phenyl-1H-2-benzothiopyran-3-yl)urea] | 94.8
COc1ccccc1C1=C(NC(=O)Nc2cc(C)c(OC(C)=O)c(C)c2)SCc2ccccc21 [Example 27, N-(4-Acetoxy-3,5-dimethylphenyl)-N'-[4-(2-methoxyphenyl)-1H-2-benzothiopyran-3-yl]urea] | 99.3

Tested on: not listed separately
Experiment: Plasma cholesterol lowering activity in cholesterol fed rat
Type: in vivo, Sprague-Dawley rats
Details: dose 0.13 mg/kg/day in diet, 4 days; 1% cholesterol diet; n=5; mean ± standard deviation; *p < 0.05 vs. control (control 191.0 ± 25.6)
Procedure: 7-week old, male Sprague-Dawley rats were fed a 1% cholesterol diet (containing 0.5% cholic acid and 5% olive oil) for three days, and then the rats were grouped according to the plasma cholesterol level (n=5). They were fed with the diet as described above containing test compound for further 4 days. Blood was collected from the rats during 8:30-10:00 am at the fed state, and the plasma cholesterol level was measured enzymatically. The amount of test compound consumed by rats was calculated on the basis of the amount of the diet consumed by the rats.

Compound | Cholesterol in Serum [mg/dL]
COc1ccccc1-c1c(NC(=O)Nc2ccc(F)cc2F)oc(=O)c2ccccc12 [Example 15, N-[4-(2-Methoxyphenyl)isocoumarin-3-yl]-N'-(2,4difluorophenyl)urea] | 125.2 ± 22.6

Same assay, conditions: dose 0.14 mg/kg/day in diet, 4 days; 1% cholesterol diet; n=5; mean ± standard deviation; *p < 0.05 vs. control (control 191.0 ± 25.6)

Compound | Cholesterol in Serum [mg/dL]
COc1ccccc1-c1c(NC(=O)Nc2cc(C)c(OC(C)=O)c(C)c2)oc(=O)c2ccccc12 [Example 14, N-[4-(2-Methoxyphenyl)isocoumarin-3-yl]-N'-(4-acetoxy-3,5-dimethylphenyl)urea] | 103.4 ± 23.7
